The subject of assay [1] is cerebral hemorrhage in rats induced by collagenase. Description: ICH model induced by collagenase: NE in brain tissue by ELISA. The class given is in vivo, Wistar rats. The settings on record: ICH rat brain tissue. The text has this:
Rats in each group were anesthetized by chloral hydrate, decollated rapidly and the brains were taken out. The brain tissue around the hole was cut and procured, weighed precisely, and made into a 10% tissue homogenate using a glass homogenizer in an ice bath environment with physiological saline as homogenized medium, the supernatant of which was taken to be determined the NE activity using ELISA method.

For assay [2] the test system is unchanged. Description: ICH model induced by collagenase: histopathological observation. The class given is in vivo, Wistar rats. Here is the method: Influence of piperphentonamine hydrochloride on pathological morphology of cerebral hemorrhage in rats was observed. Each group animals were selected randomly, anesthetized deeply by chloral hydrate at predetermined time point, decollated and the brain were taken out rapidly, then, the brain tissue slices with hematoma (about 5 mm) were cut, and put into 10% formaldehyde solution immediately, fixed for 24 h followed by dehydration by graded ethanol, transparentizing by xylene, immersing in paraffin, embedding, slicing (5 μm), HE staining and sealing. The pathological changes area and the pathological change of the adjacent brain tissue were observed by optical microscope.

The test system is the same in assay [3]. Description: cerebral hemorrhage (ICH) model induced by collagenase: neurology score. The class given is in vivo, Wistar rats. The protocol: (§1) Animals are randomly divided into five groups: sham operation 24 h group; cerebral hemorrhage (Intracerebral Haemorrhage, ICH)+physiological saline group (model); ICH+piperphentonamine hydrochloride (JBTA, 2 mg/kg) group, called as high dose group (h); ICH+piperphentonamine hydrochloride (JBTA, 0.5 mg/kg) group, called as low dose group (1); ICH+nimodipine (Nim, 0.5 mg/kg) group. The last four groups are divided into 4 h, 8 h, 12 h, 24 h as four time subgroups respectively. Physiological saline solution, piperphentonamine hydrochloride and nimodipine are intravenously injected from rat tail before the ICH model is established for 30 minutes, once a day. Injecting slowly, the total amount of drug liquid is controlled in 1 ml/200 g body weight: physiological saline solution also being administered in 1 ml/200 g body weight. Each group has 7 Wistar rats.
The specific steps are as following: after the experimental rats are anesthetized by injecting chloral hydrate (350 mg/kg) in intraperitoneal, and being supinely immobilized in a stereotaxic instrument, and make the rat anterior fontanelle and posterior fontanelle in the same plane according to localization method reported by BAO Xinmin, etc. Being locally disinfected by iodine, incising in the midmost of scalp, scissoring the periosteum, exposing the anterior fontanelle, drilling a 1 mm diameter hole with thickness close to duramater in 3 mm left to the midline by number five needle. Inserting needle along the hole by the micro syringe fixed on a stereotaxic, the depth of needle insertion is 5.8 mm (i.e., the caudate nucleus position), slowly injecting collagenase VI 0.5 U. Injection time is 3 min, keeping for 5 min after injection, then pull the needle out, suturing the skin, and putting the rat into cage and feed. Inserting the needle and not injecting drugs in sham operation group, the remaining operations is the same as the above.
After animals wake up, scoring nerve function defect of each group immediately according to the grading classification standards of nerve defect reported by Bedersog (litter improved).
Choosing the animals with the score of 3 and more into the experiment, the animals are bred in different cages, eat and drink normally. Temperature is controlled in 20 to 25° C., score in 4 h, 8 h, 12 h, 24 h after establishment of the model.
(§2) Divide the animals randomly into five groups: sham operation (sham) 24 h group; ICH+normal saline group (model); ICH+piperphentonamine maleate (4 mg/kg) group, namely high dose group (h); ICH+piperphentonamine maleate (2 mg/kg) group, namely low dose group (1); ICH+nimodipine (0.5 mg/kg) group. The last four groups were divided into four time subgroup of 4 h, 8 h, 12 h and 24 h. Physiological solution, piperphentonamine maleate and nimodipine were injected intravenous from rat tail vein 30 minutes before the ICH model made, once a day. Inject slowly, the total amount of drug liquid was controlled in 1 ml/200 g body weight: normal saline was also administered in 1 ml/200 g body weight. Each group has seven Wistar rats.

For assay [4] the test system is unchanged. Description: ICH model induced by collagenase: brain water content (BWC). The class given is in vivo, Wistar rats. The protocol:
as §1
Observing the influence of piperphentonamine hydrochloride on the brain water content of intracerebral hemorrhage in rats in 4 h, 8 h, 12 h, 24 h, the animals of the different groups is anesthetized by chloral hydrate at predetermined time point, and decollating and taking the brain rapidly, putting the brain tissue on a filter paper wetted by saline solution to prevent water evaporating. Removing the leptomeninges and blood, cutting and taking the front half portion of brain tissue centered by the hole for the insertion needle, weighing precisely (accurate to 0.1 mg). It is controlled in 5 min to take the brain to finish weigh. Then putting in 95° C. constant temperature oven for 24 h, weighing the dry weight. The brain water content is calculated according to Blliot formula: BWC=(wet weight−dry weight)/wet weight×100%.
as §2

Assay [5] has as its system cerebral hemorrhage of rats (autologous blood). Description: cerebral hemorrhage by autologous blood into caudate nucleus: edema (dry-wet weight) and forelimb placement. The class given is in vivo, SD rats. Conditions: local administering 3 h after hemorrhage. Here is the method:
Adult male SD rats were divided randomly into normal saline group, cerebral hemorrhage group and piperphentonamine maleate group. A model of cerebral hemorrhage was established by the methods of injecting 50 μl autologous blood into caudate nucleus of rats, wherein, the position of caudate nucleus was determined according to “the rat cerebral in stereotaxic atlas”: the injection position is at the point of front to anterior fontanelle of 0.2 mm, right to the sagittal suture of 3.0 mm, depth of 6.3 mm. The change of cerebral edema was observed by the dry-wet weight method; the behavior was observed by forelimb placement experiment. The cerebral hemorrhage group was only injected without medicine, with the treatment time of at 3 h after hemorrhage. The edema measurement time was in 1, 2, 3, 7, 14 days after hemorrhage, the behavioral observation time phase was in 1, 2, 3, 7, 14, 28 days after hemorrhage, each group of each time phase had 6 rats.

Assay [6] relates to cerebral hemorrhage in rats induced by collagenase. In words: ICH model induced by collagenase: NO in brain tissue by nitrate reductase method. The class given is in vivo, Wistar rats. The source says:
Rats in each group were anesthetized by chloral hydrate, decollated rapidly and the brain take were taken out. The brain tissue around the hole was cut and procured, weighed precisely, and made into a 10% tissue homogenate using a glass homogenizer in an ice bath environment with physiological saline as homogenized medium, the supernatant of which was taken to be determined the content of NO by nitrate reductase method.

Assay [7] has as its system cerebral edema of mice caused by closed cerebral trauma. Description: closed cerebral trauma model of mice, brain water content. The class given is in vivo, Kunming mice. The settings on record: 2 mg/kg iv, brain taken after 24 h. The protocol: There were 10 mice in each group.
The closed cerebral trauma model of mice being established after fasting for 16 hours, administering intravenously to each group, striping and taking the brain of mouse after 24 hours, weighing the wet weight, and drying at 70° C. for 24 hours, then weighing the dry weight, and calculating brainwater content; the brain water content which is higher than normal values indicates the cerebral edema.
The grouping method, administer method and model preparation were referred to example 2.

Assay [8] concerns cultured cerebral neurons. Description: NMDA induces neuron injury in primary cultured neurons. The settings on record: drug 50 mmol/L; NMDA 50 mmol/L, 12 h. The class given is cell-based, rat.
In the next assay the test system is human brain disease. In words: research in treating human brain diseases (no details). The class given is in vivo.
Where [9] appears, read: 2 mg/kg iv 30 min before ICH, 4 h (example 12).
Setting [10] is: 2 mg/kg iv 30 min before ICH, 8 h (example 12).
The mark [11] stands for this setting: 2 mg/kg iv 30 min before ICH, 12 h (example 12).
Where [12] appears, read: 2 mg/kg iv 30 min before ICH, 24 h (example 12).
[13] abbreviates: 4 mg/kg iv 30 min before ICH, 8 h.
Where [14] appears, read: 4 mg/kg iv 30 min before ICH, 12 h.
Setting [15] is: 4 mg/kg iv 30 min before ICH, 24 h.

Marks after values point to notes of the source that are not given here.

With `CN(CCC(=O)/C=C/c1ccc(O)cc1)CCc1ccc2c(c1)OCO2.O=C(O)/C=C\C(=O)O` [piperphentonamine maleate], the NE was 2.37 ± 0.07^ΔΔ ng/ml in assay [1] (high dose group (h), 4 mg/kg) and 2.78 ± 0.05^ΔΔ ng/ml in [1] (low dose group (l), 2 mg/kg). The histopathological observation result in [2] (large dose (4 mg/kg) pretreatment) was “obviously reduce tissue edema and inflammatory cell infiltration after cerebral hemorrhage”; in [2] (small dose maleate (2 mg/kg) or nimodipine (0.5 mg/kg) in advance), “could ease the pathological changes above-mentioned in different levels”. Moreover, the neurological score in assay [3] (setting [9]) is reported as 3.61 ± 0.7; in assay [3] (setting [10]), 3.43 ± 0.82; in [3] (setting [11]), 2.92 ± 0.95; in assay [3] (setting [12]), 2.57 ± 1.28; in assay [3] (4 mg/kg iv 30 min before ICH, 4 h), 3.25 ± 0.59; in assay [3] (setting [13]), 3.08 ± 0.95. Moreover, the neurological score in [3] (setting [14]) is 1.88 ± 0.64*^Δ; in assay [3] (setting [15]), 1.37 ± 0.46**^ΔΔ. Further, the brain water content was 62.66 ± 0.66^Δ in assay [4] (setting [9]); 63.88 ± 0.55^ΔΔ in [4] (setting [10]); 64.86 ± 0.59^ΔΔ in [4] (setting [11]); 66.33 ± 0.5^ΔΔ in [4] (setting [12]); 62.19 ± 0.54 in assay [4] (4 mg/kg iv 30 min before ICH, 4 h, in %); 62.53 ± 0.42^Δ** in [4] (setting [13]). Besides, the brain water content is given as 63.38 ± 0.15^ΔΔ** in assay [4] (setting [14]) and 64.62 ± 0.58^ΔΔ** in [4] (setting [15]). Further, the “cerebral edema after cerebral hemorrhage” value in assay [5] is recorded as “could obviously relieve cerebral edema after cerebral hemorrhage”. In assay [5], the “neural function defect after cerebral hemorrhage (forelimb placement)” value is listed as “improve the neural function defect after cerebral hemorrhage”. The NO is 2.16 ± 0.05^Δ μmol/g pro in assay [6] (2 mg/kg, ICH rat brain tissue (example 12)) and 1.48 ± 0.03^Δ μmol/g pro in assay [6] (4 mg/kg, ICH rat brain tissue).
As for piperphentonamine, the “pathological morphology of cerebral hemorrhage” value in [2] (small doses (0.5 mg/kg) in advance) is “could ease the pathological changes above-mentioned in different levels”. In assay [7], the “water content of cerebra (%)” value is reported as 78.31 ± 5.72 %. In assay [8], this molecule yielded a mortality of 30%. Moreover, in the assay on human brain disease, the “treating human brain and other diseases” value was “obvious effect and clinical significance”.

What is called mortality is the share of the test organisms that died. A low value points to a weak lethal effect.

The values are drawn from patent publication US8916607B2, “Use of piperphentonamine or salts thereof in manufacture of medicaments for treating brain diseases” (Guangzhou Municipal Zhongwei Biotechnology Limited Company, priority 2009, dated 2014).
